Measured values: ChEMBL document CHEMBL1629655, “Affinity of Tomopenem (CS-023) for penicillin-binding proteins in Staphylococcus aureus, Escherichia coli, and Pseudomonas aeruginosa” (Antimicrob Agents Chemother, 2009)
≈ marks a conversion by molar mass, not a printed value.

How the values were obtained:
Staphylococcus aureus [1] = test: Antibacterial activity against Staphylococcus aureus ATCC 6538P by microdilution method; assay type: functional, organism-based
Escherichia coli [2] = test: Antibacterial activity against Escherichia coli NIHJ by microdilution method; assay type: functional, organism-based
Pseudomonas aeruginosa [3] = test: Antibacterial activity against Pseudomonas aeruginosa ATCC 15692 by microdilution method; assay type: functional, organism-based
[4] = Displacement of [14C]benzylpenicillin from PBP1 in Staphylococcus aureus ATCC 6538P
[5] = Displacement of [14C]benzylpenicillin from PBP2 Staphylococcus aureus ATCC 6538P
[6] = Displacement of [14C]benzylpenicillin from PBP3 in Staphylococcus aureus ATCC 6538P
[7] = Displacement of [14C]benzylpenicillin from PBP4 in Staphylococcus aureus ATCC 6538P
[8] = Displacement of [14C]benzylpenicillin from PBP1A in Escherichia coli NIHJ
[9] = Displacement of [14C]benzylpenicillin from PBP1B in Escherichia coli NIHJ
[10] = Displacement of [14C]benzylpenicillin from PBP2 in Escherichia coli NIHJ
[11] = Displacement of [14C]benzylpenicillin from PBP3 in Escherichia coli NIHJ
[12] = Displacement of [14C]benzylpenicillin from PBP4 in Escherichia coli NIHJ
[13] = Displacement of [14C]benzylpenicillin from PBP5 in Escherichia coli NIHJ
[14] = Displacement of [14C]benzylpenicillin from PBP6 Escherichia coli NIHJ
[15] = Displacement of [14C]benzylpenicillin from PBP1A in Pseudomonas aeruginosa ATCC 15692
[16] = Displacement of [14C]benzylpenicillin from PBP1B in Pseudomonas aeruginosa ATCC 15692
[17] = Displacement of [14C]benzylpenicillin from PBP2 in Pseudomonas aeruginosa ATCC 15692
[18] = Displacement of [14C]benzylpenicillin from PBP3 in Pseudomonas aeruginosa ATCC 15692
[19] = Displacement of [14C]benzylpenicillin from PBP4 in Pseudomonas aeruginosa ATCC 15692
[20] = Displacement of [14C]benzylpenicillin from PBP 5 in Pseudomonas aeruginosa ATCC 15692
[21] = Displacement of [14C]benzylpenicillin from PBP 6 in Pseudomonas aeruginosa ATCC 15692
Staphylococcus aureus [22] = test: Antibacterial activity against Staphylococcus aureus SRR2a selected at 2 times MIC of tomopenem by microdilution method; assay type: functional
Staphylococcus aureus [23] = test: Ratio of MIC for Staphylococcus aureus SRR2a to MIC for Staphylococcus aureus ATCC 6538P; assay type: functional
Staphylococcus aureus [24] = test: Antibacterial activity against Staphylococcus aureus SIR2a selected at 2 times MIC of imipenem by microdilution method; assay type: functional
Staphylococcus aureus [25] = test: Ratio of MIC for Staphylococcus aureus SIR2a selected at 2 times MIC of imipenem to MIC for Staphylococcus aureus ATCC 6538P; assay type: functional
Staphylococcus aureus [26] = test: Antibacterial activity against Staphylococcus aureus SMR2a selected at 2 times MIC of meropenem by microdilution method; assay type: functional
Staphylococcus aureus [27] = test: Ratio of MIC for Staphylococcus aureus SMR2a to MIC for Staphylococcus aureus ATCC 6538P; assay type: functional
Staphylococcus aureus [28] = test: Antibacterial activity against Staphylococcus aureus SMR4a […] MIC of meropenem by microdilution method; assay type: functional
Staphylococcus aureus [29] = test: Ratio of MIC for Staphylococcus aureus SMR4a to MIC for Staphylococcus aureus ATCC 6538P; assay type: functional
Escherichia coli [30] = test: Antibacterial activity against Escherichia coli ERR2a selected at 2 times MIC of tomopenem by microdilution method; assay type: functional
Escherichia coli [31] = test: Ratio of MIC for Escherichia coli ERR2a selected to MIC for Escherichia coli NIHJ; assay type: functional
Escherichia coli [32] = test: Antibacterial activity against Escherichia coli ERR2b selected at 2 times MIC of tomopenem by microdilution method; assay type: functional
Escherichia coli [33] = test: Ratio of MIC for Escherichia coli ERR2b to MIC for Escherichia coli NIHJ; assay type: functional
Escherichia coli [34] = test: Antibacterial activity against Escherichia coli ERR4a selected at 4 times MIC of tomopenem by microdilution method; assay type: functional
Escherichia coli [35] = test: Ratio of MIC for Escherichia coli ERR4a to MIC for Escherichia coli NIHJ; assay type: functional
Escherichia coli [36] = test: Antibacterial activity against Escherichia coli ERR8a selected at 8 times MIC of tomopenem by microdilution method; assay type: functional
Escherichia coli [37] = test: Ratio of MIC for Escherichia coli ERR8a to MIC for Escherichia coli NIHJ; assay type: functional
Escherichia coli [38] = test: Antibacterial activity against Escherichia coli EIR2a selected at 2 times MIC of imipenem by microdilution method; assay type: functional
Escherichia coli [39] = test: Ratio of MIC for Escherichia coli EIR2a to MIC for Escherichia coli NIHJ; assay type: functional
Escherichia coli [40] = test: Antibacterial activity against Escherichia coli EIR2b selected at 2 times MIC of imipenem by microdilution method; assay type: functional
Escherichia coli [41] = test: Ratio of MIC for Escherichia coli EIR2b to MIC for Escherichia coli NIHJ; assay type: functional
Escherichia coli [42] = test: Antibacterial activity against Escherichia coli EIR4a selected at 4 times MIC of imipenem by microdilution method; assay type: functional
Escherichia coli [43] = test: Ratio of MIC for Escherichia coli EIR4a to MIC for Escherichia coli NIHJ; assay type: functional
Escherichia coli [44] = test: Antibacterial activity against Escherichia coli EIR4b selected at 4 times MIC of imipenem by microdilution method; assay type: functional
Escherichia coli [45] = test: Ratio of MIC for Escherichia coli EIR4b to MIC for Escherichia coli NIHJ; assay type: functional
Escherichia coli [46] = test: Antibacterial activity against Escherichia coli EIR8a selected at 8 times MIC of imipenem by microdilution method; assay type: functional
Escherichia coli [47] = test: Ratio of MIC for Escherichia coli EIR8a to MIC for Escherichia coli NIHJ; assay type: functional
Escherichia coli [48] = test: Antibacterial activity against Escherichia coli EMR2a selected at 2 times MIC of meropenem by microdilution method; assay type: functional
Escherichia coli [49] = test: Ratio of MIC for Escherichia coli EMR2a to MIC for Escherichia coli NIHJ; assay type: functional
Pseudomonas aeruginosa [50] = test: Antibacterial activity against Pseudomonas aeruginosa PRR4a selected at 4 times MIC of tomopenem by microdilution method; assay type: functional
Pseudomonas aeruginosa [51] = test: Ratio of MIC for Pseudomonas aeruginosa PRR4a to MIC for Pseudomonas aeruginosa ATCC 15692; assay type: functional
Pseudomonas aeruginosa [52] = test: Antibacterial activity against Pseudomonas aeruginosa PIR2a selected at 2 times MIC of imipenem by microdilution method; assay type: functional
Pseudomonas aeruginosa [53] = test: Ratio of MIC for Pseudomonas aeruginosa PIR2a to MIC for Pseudomonas aeruginosa ATCC 15692; assay type: functional
Pseudomonas aeruginosa [54] = test: Antibacterial activity against Pseudomonas aeruginosa PMR2a selected at 2 times MIC of meropenem by microdilution method; assay type: functional
Pseudomonas aeruginosa [55] = test: Ratio of MIC for Pseudomonas aeruginosa PMR2a to MIC for Pseudomonas aeruginosa ATCC 15692; assay type: functional

C[C@@H](O)[C@H]1C(=O)N2C(C(=O)O)=C(S[C@@H]3CN[C@H](C(=O)N(C)C)C3)[C@H](C)[C@H]12 [MEROPENEM]
IC50 (Staphylococcus aureus [1]): 0.06 µg/mL (≈ 0.156 µM) | MBC (Staphylococcus aureus [1]): 0.12 µg/mL (≈ 0.313 µM) | MIC (Staphylococcus aureus [1]): 0.06 µg/mL (≈ 0.156 µM) | MBC (Escherichia coli [2]): 0.03 µg/mL (≈ 0.0782 µM) | MIC (Escherichia coli [2]): 0.03 µg/mL (≈ 0.0782 µM) | MBC (Pseudomonas aeruginosa [3]): 1 µg/mL (≈ 2.61 µM) | MIC (Pseudomonas aeruginosa [3]): 1 µg/mL (≈ 2.61 µM) | IC50 [4]: 0.044 µg/mL (≈ 0.115 µM) | IC50 [5]: 0.26 µg/mL (≈ 0.678 µM) | IC50 [6]: > 130 µg/mL | IC50 [7]: 0.071 µg/mL (≈ 0.185 µM) | IC50 [8]: 0.82 µg/mL (≈ 2.14 µM) | IC50 [9]: 0.77 µg/mL (≈ 2.01 µM) | IC50 [10]: 0.016 µg/mL (≈ 0.0417 µM) | IC50 [11]: 0.39 µg/mL (≈ 1.02 µM) | IC50 [12]: 0.047 µg/mL (≈ 0.123 µM) | IC50 [13]: 1.2 µg/mL (≈ 3.13 µM) | IC50 [14]: 15 µg/mL (≈ 39.1 µM) | IC50 [15]: 0.12 µg/mL (≈ 0.313 µM) | IC50 [16]: 0.11 µg/mL (≈ 0.287 µM) | IC50 [17]: 0.018 µg/mL (≈ 0.0469 µM) | IC50 [18]: 0.013 µg/mL (≈ 0.0339 µM) | IC50 [19]: 0.0033 µg/mL (≈ 0.00861 µM) | IC50 [20]: 4.5 µg/mL (≈ 11.7 µM) | IC50 [21]: 4.5 µg/mL (≈ 11.7 µM) | MIC (Staphylococcus aureus [22]): 0.25 µg/mL | Ratio MIC (Staphylococcus aureus [23]): 8 | MIC (Staphylococcus aureus [24]): 0.12 µg/mL | Ratio MIC (Staphylococcus aureus [25]): 4 | MIC (Staphylococcus aureus [26]): 0.25 µg/mL | Ratio MIC (Staphylococcus aureus [27]): 8 | MIC (Staphylococcus aureus [28]): 0.25 µg/mL | ratio (Staphylococcus aureus [29]): 8 | MIC (Escherichia coli [30]): 0.03 µg/mL | Ratio MIC (Escherichia coli [31]): 1 | MIC (Escherichia coli [32]): 0.06 µg/mL | Ratio MIC (Escherichia coli [33]): 2 | MIC (Escherichia coli [34]): 0.06 µg/mL | Ratio MIC (Escherichia coli [35]): 2 | MIC (Escherichia coli [36]): 0.06 µg/mL | Ratio MIC (Escherichia coli [37]): 2 | MIC (Escherichia coli [38]): 0.03 µg/mL | Ratio MIC (Escherichia coli [39]): 1 | MIC (Escherichia coli [40]): 0.03 µg/mL | Ratio MIC (Escherichia coli [41]): 1 | MIC (Escherichia coli [42]): 0.03 µg/mL | Ratio MIC (Escherichia coli [43]): 1 | MIC (Escherichia coli [44]): 0.12 µg/mL | Ratio MIC (Escherichia coli [45]): 4 | MIC (Escherichia coli [46]): 0.03 µg/mL | Ratio MIC (Escherichia coli [47]): 1 | MIC (Escherichia coli [48]): 0.06 µg/mL | Ratio MIC (Escherichia coli [49]): 2 | MIC (Pseudomonas aeruginosa [50]): 2 µg/mL | Ratio MIC (Pseudomonas aeruginosa [51]): 4 | MIC (Pseudomonas aeruginosa [52]): 4 µg/mL | Ratio MIC (Pseudomonas aeruginosa [53]): 8 | MIC (Pseudomonas aeruginosa [54]): 8 µg/mL | Ratio MIC (Pseudomonas aeruginosa [55]): 16
